Columns and labels:
Human melanocortin (MC5) = target: T1, Human melanocortin (MC5) (Homo sapiens, UniProt P33032); experiment: Radioligand binding, human melanocortin MC5 membranes, FlashPlate, [125I]-NDP-αMSH; settings: compound at 10 μM; for A5 radioligand binding inhibition: human melanocortin MC5 membranes
T1 construct: purchased Perkin Elmer Biosignal
Method in brief: (§1)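 Cloned human receptor membranes were coated onto FlashPlate wells and incubated with radioligand and compound (added from a 0.5 mM DMSO daughter plate) for 1 hour at room temperature in the dark. Scintillation counting gave percent inhibition, with DMSO defining total and reference ligand defining non-specific binding.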

Human κ-Opioid (KOP) = target: T2, Human κ-Opioid (KOP) (Homo sapiens, UniProt P41145); experiment: Radioligand binding, human κ-opioid (KOP) membranes, filtration, [3H]-Diprenorphine; settings: compound at 10 μM; for A2 radioligand binding inhibition: human κ-opioid (KOP) membranes
T2 construct: purchased Perkin Elmer Biosignal
T2 sequence (P41145 whole entry): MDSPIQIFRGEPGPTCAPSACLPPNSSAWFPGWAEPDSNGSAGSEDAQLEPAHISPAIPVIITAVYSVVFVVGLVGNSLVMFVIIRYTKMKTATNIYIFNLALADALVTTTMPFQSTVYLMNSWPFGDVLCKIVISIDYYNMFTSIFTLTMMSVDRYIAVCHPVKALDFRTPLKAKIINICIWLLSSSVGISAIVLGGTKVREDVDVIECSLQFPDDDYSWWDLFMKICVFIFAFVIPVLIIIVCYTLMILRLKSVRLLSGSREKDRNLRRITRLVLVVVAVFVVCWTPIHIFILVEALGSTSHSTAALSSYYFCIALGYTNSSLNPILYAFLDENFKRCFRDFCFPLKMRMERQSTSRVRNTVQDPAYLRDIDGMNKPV
Method in brief: (§2)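 Filtration binding on cloned human receptor membranes (1 Unit/well), [125I]-Substance P for NK1 and [3H]-Diprenorphine for KOP, 1 h at room temperature. Filters PEI-presoaked, washed with cold 50 mM Tris-HCl pH 7.4, counted by scintillation; percent inhibition calculated, reference ligand defining non-specific binding.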

[1] = target: T3, Human melanin-concentrating hormone (MCH1) (Homo sapiens, UniProt Q99705); experiment: Radioligand binding, human melanin-concentrating hormone MCH1 membranes, FlashPlate, [125I]-S36057; settings: compound at 10 μM; for A6 radioligand binding inhibition: human MCH1 membranes
T3 construct: purchased Perkin Elmer Biosignal
T3 sequence (Q99705 whole entry): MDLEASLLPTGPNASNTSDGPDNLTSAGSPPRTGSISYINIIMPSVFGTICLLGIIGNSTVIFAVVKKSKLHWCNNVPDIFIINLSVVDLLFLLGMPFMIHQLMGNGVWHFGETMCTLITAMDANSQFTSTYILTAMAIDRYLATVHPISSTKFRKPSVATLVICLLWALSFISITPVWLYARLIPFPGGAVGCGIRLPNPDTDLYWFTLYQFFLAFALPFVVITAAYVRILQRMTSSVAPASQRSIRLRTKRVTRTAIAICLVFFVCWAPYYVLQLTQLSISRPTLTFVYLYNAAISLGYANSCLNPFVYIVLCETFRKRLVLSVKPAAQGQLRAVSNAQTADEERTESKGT
Method in brief: as §1

Human Melanocortin (MC3) = target: T4, Human Melanocortin (MC3) (Homo sapiens, UniProt P41968); experiment: Radioligand binding, human melanocortin MC3 membranes, FlashPlate, [125I]-NDP-αMSH; settings: compound at 10 μM; for A3 radioligand binding inhibition: human melanocortin MC3 membranes
T4 construct: purchased Perkin Elmer Biosignal
T4 sequence (P41968 whole entry): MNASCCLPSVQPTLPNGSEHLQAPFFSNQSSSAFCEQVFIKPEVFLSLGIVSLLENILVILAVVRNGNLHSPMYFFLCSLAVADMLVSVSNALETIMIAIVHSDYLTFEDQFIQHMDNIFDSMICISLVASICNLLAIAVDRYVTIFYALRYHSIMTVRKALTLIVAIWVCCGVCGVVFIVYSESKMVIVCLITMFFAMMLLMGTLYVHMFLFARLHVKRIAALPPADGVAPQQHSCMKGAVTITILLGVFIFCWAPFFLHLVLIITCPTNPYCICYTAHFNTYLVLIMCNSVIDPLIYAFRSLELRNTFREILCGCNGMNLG
Method in brief: as §1

Human μ-opioid (MOP) = target: T5, Human μ-opioid (MOP) (Homo sapiens, UniProt P35372); experiment: Radioligand binding, human μ-opioid (MOP) membranes, FlashPlate, [3H]-Naloxone; settings: compound at 10 μM; for A7 radioligand binding inhibition: human μ-opioid (MOP) membranes
T5 construct: purchased Perkin Elmer Biosignal
T5 sequence (P35372 whole entry): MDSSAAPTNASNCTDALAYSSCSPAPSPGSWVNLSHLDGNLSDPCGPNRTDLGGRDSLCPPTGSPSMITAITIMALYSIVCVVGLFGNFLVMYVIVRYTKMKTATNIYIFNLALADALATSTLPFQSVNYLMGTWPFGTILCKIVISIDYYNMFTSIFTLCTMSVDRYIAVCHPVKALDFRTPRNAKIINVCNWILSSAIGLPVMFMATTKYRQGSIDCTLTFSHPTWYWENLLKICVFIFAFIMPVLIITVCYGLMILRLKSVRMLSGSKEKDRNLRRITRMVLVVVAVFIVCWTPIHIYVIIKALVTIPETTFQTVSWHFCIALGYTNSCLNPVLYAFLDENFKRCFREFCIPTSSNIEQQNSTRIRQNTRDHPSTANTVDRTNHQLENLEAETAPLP
Method in brief: as §1

Mouse urotensin (mUR2) = target: T6, Mouse urotensin (mUR2) (Mus musculus, UniProt Q8VIH9); experiment: Radioligand binding, mouse urotensin mUR2 membranes, FlashPlate, [125I]-Urotensin II; settings: compound at 10 μM; for A11 radioligand binding inhibition: mouse urotensin mUR2 membranes
T6 construct: purchased Perkin Elmer Biosignal
T6 sequence (Q8VIH9 1-385): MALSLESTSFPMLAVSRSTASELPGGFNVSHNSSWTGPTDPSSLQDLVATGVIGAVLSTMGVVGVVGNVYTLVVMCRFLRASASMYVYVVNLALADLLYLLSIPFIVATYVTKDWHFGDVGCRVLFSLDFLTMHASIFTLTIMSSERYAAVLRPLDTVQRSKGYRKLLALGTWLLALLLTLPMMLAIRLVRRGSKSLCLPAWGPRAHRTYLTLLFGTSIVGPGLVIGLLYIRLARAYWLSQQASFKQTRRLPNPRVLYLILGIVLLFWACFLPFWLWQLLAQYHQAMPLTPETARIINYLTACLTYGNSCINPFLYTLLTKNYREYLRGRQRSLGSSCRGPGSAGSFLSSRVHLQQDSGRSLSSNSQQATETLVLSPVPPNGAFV
Method in brief: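 Cloned mouse urotensin (mUR2) receptor membranes from Perkin Elmer Biosignal were immobilized in FlashPlate microplates using a proprietary coating. Each well got 19.5 μl buffer, then 0.5 μl of DMSO, reference ligand, or compound. Adding 5 μl of [125I]-Urotensin II, diluted to 5× final concentration in binding buffer, started binding. Plates were sealed with TopSeal-A and incubated 1 hour at room temperature in the dark. Wells were counted for 30 seconds each on a TopCount after a 60-second delay, and percentage inhibition was calculated.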

[2] = target: T7, Human neuropeptide Y (NPY-Y1) (Homo sapiens, UniProt P25929); experiment: Radioligand binding, human neuropeptide Y NPY-Y1 membranes, FlashPlate, [125I]-PYY; settings: compound at 10 μM; for A9 radioligand binding inhibition: human NPY-Y1 membranes
T7 construct: purchased Perkin Elmer Biosignal
T7 sequence (P25929 1-384): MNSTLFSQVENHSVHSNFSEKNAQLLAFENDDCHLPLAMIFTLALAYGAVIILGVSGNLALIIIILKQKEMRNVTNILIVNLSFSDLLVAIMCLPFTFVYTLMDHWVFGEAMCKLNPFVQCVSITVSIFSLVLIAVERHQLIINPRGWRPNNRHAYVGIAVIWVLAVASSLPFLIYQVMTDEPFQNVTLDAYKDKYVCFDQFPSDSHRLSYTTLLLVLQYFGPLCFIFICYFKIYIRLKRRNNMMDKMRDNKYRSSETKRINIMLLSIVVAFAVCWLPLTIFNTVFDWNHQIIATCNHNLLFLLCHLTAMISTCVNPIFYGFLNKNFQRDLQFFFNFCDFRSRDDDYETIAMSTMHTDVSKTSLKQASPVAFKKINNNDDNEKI
Method in brief: as §1

Human δ-opioid (DOP) = target: T8, Human δ-opioid (DOP) (Homo sapiens, UniProt P41143); experiment: Radioligand binding, human δ-opioid (DOP) membranes, FlashPlate, [3H]-Bremazocine; settings: compound at 10 μM; for A1 radioligand binding inhibition: human δ-opioid (DOP) membranes
T8 construct: purchased Perkin Elmer Biosignal
T8 sequence (P41143 whole entry): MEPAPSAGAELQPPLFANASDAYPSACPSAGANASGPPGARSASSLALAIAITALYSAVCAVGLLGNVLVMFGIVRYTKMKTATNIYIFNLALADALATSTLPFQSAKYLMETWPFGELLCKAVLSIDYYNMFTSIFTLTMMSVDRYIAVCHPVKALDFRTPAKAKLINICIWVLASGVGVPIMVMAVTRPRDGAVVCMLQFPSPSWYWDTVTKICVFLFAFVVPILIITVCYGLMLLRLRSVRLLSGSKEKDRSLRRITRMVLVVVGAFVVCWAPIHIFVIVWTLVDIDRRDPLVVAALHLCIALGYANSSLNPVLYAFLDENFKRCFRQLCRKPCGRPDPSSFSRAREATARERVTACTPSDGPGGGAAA
Method in brief: as §1

Human opioid (ORL1) = target: T9, Human opioid (ORL1) (Homo sapiens, UniProt P41146); experiment: Radioligand binding, human opioid ORL1 membranes, FlashPlate, [125I]-Nociceptin; settings: compound at 10 μM; for A10 radioligand binding inhibition: human ORL1 membranes
T9 construct: purchased Perkin Elmer Biosignal
T9 sequence (P41146 whole entry): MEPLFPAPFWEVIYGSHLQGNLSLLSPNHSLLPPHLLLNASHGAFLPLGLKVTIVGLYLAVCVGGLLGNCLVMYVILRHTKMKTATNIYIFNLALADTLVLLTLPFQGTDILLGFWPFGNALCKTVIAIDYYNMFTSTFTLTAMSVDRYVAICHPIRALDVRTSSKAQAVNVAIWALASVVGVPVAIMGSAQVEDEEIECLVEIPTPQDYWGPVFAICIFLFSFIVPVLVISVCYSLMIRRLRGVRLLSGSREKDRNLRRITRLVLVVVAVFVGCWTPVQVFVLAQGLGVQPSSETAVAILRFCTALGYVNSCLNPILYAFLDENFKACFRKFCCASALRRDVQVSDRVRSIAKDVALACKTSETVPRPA
Method in brief: as §1

Human Melanocortin (MC4) = target: T10, Human Melanocortin (MC4) (Homo sapiens, UniProt P32245); experiment: Radioligand binding, human melanocortin MC4 membranes, FlashPlate, [125I]-NDP-αMSH; settings: compound at 10 μM; for A4 radioligand binding inhibition: human melanocortin MC4 membranes
T10 construct: purchased Perkin Elmer Biosignal
T10 sequence (P32245 whole entry): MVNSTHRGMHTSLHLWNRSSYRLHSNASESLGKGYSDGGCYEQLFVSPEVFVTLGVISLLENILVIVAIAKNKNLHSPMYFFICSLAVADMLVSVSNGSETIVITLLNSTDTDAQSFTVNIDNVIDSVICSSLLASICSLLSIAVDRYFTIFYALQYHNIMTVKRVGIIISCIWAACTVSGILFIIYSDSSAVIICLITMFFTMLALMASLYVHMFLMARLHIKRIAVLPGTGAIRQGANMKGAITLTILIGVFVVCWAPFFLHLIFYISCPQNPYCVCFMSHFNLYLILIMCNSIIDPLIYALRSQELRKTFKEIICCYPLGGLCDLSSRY
Method in brief: as §1

Human neurokinin (NK1) = target: T11, Human neurokinin (NK1) (Homo sapiens, UniProt P25103); experiment: Radioligand binding, human neurokinin NK1 membranes, filtration, [125I]-Substance P; settings: compound at 10 μM; for A8 radioligand binding inhibition: human neurokinin NK1 membranes
T11 construct: purchased Perkin Elmer Biosignal
T11 sequence (P25103 whole entry): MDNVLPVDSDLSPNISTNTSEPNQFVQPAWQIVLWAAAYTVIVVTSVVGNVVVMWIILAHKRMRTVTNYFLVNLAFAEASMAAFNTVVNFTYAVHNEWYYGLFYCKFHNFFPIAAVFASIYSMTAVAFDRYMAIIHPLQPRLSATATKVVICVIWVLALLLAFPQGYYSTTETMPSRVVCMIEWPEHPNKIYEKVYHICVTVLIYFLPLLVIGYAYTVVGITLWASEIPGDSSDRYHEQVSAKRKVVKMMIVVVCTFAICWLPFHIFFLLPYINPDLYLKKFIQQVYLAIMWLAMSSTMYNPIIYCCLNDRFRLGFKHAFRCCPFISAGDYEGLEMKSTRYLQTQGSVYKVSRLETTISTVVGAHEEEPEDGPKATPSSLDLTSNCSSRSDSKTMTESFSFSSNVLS
Method in brief: as §2

T1 sequence (P33032 whole entry): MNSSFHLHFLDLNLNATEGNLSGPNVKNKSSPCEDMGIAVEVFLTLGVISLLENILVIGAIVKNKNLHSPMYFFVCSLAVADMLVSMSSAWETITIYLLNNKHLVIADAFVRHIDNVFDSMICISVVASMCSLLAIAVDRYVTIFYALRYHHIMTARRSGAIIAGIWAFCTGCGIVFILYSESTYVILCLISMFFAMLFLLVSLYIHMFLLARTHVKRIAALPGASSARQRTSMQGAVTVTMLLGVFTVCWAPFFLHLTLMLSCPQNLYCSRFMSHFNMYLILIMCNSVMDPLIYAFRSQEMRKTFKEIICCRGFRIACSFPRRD

| Structure (SMILES) | A5 radioligand binding inhibition (Human melanocortin (MC5)) | A2 radioligand binding inhibition (Human κ-Opioid (KOP)) | A6 radioligand binding inhibition [1] | A3 radioligand binding inhibition (Human Melanocortin (MC3)) | A7 radioligand binding inhibition (Human μ-opioid (MOP)) | A11 radioligand binding inhibition (Mouse urotensin (mUR2)) | A9 radioligand binding inhibition [2] | A1 radioligand binding inhibition (Human δ-opioid (DOP)) | A10 radioligand binding inhibition (Human opioid (ORL1)) | A4 radioligand binding inhibition (Human Melanocortin (MC4)) | A8 radioligand binding inhibition (Human neurokinin (NK1)) | further results |
| --- | --- | --- | --- | --- | --- | --- | --- | --- | --- | --- | --- | --- |
| CO[C@H]1[C@H](O)[C@@H](COCc2ccc3ccccc3c2)OC(OCc2ccccc2)[C@@H]1NC(=O)CCCN (stereo partly drawn) [compound 88] | − (“−” indicates less than 50% inhibition at 10 μM) | − (“−” indicates less than 50% inhibition at 10 μM) | − (“−” indicates less than 50% inhibition at 10 μM) | − (“−” indicates less than 50% inhibition at 10 μM) | − (“−” indicates less than 50% inhibition at 10 μM) | − (“−” indicates less than 50% inhibition at 10 μM) | − (“−” indicates less than 50% inhibition at 10 μM) | − (“−” indicates less than 50% inhibition at 10 μM) | − (“−” indicates less than 50% inhibition at 10 μM) | − (“−” indicates less than 50% inhibition at 10 μM) | + (“+” indicates greater than 50% inhibition at 10 μM) |  |
| NCCCC(=O)NC1C(OCc2ccccc2)OC(COCc2ccccc2)C(O)C1OCc1ccccc1 (stereo not drawn) [compound 379] |  |  |  |  |  |  |  |  |  |  |  | A5: inhibition of radioligand binding, human melanocortin (MC5) (Human melanocortin (MC5); [125I]-NDP-αMSH): + (“+” indicates greater than 50% inhibition at 10 μM); A2: inhibition of radioligand binding, human κ-opioid (KOP) (Human κ-Opioid (KOP); [3H]-Diprenorphine): − (“−” indicates less than 50% inhibition at 10 μM); A6: inhibition of radioligand binding, human melanin-concentrating hormone (MCH1) ([1]; [125I]-S36057): − (“−” indicates less than 50% inhibition at 10 μM); A3: inhibition of radioligand binding, human melanocortin (MC3) (Human Melanocortin (MC3); [125I]-NDP-αMSH): − (“−” indicates less than 50% inhibition at 10 μM); A7: inhibition of radioligand binding, human μ-opioid (MOP) (Human μ-opioid (MOP); [3H]-Naloxone): − (“−” indicates less than 50% inhibition at 10 μM); A11: inhibition of radioligand binding, mouse urotensin (mUR2) (Mouse urotensin (mUR2); [125I]-Urotensin II): − (“−” indicates less than 50% inhibition at 10 μM); A9: inhibition of radioligand binding, human neuropeptide Y (NPY-Y1) ([2]; [125I]-PYY): − (“−” indicates less than 50% inhibition at 10 μM); A1: inhibition of radioligand binding, human δ-opioid (DOP) (Human δ-opioid (DOP); [3H]-Bremazocine): − (“−” indicates less than 50% inhibition at 10 μM); A10: inhibition of radioligand binding, human opioid (ORL1) (Human opioid (ORL1); [125I]-Nociceptin): − (“−” indicates less than 50% inhibition at 10 μM); A4: inhibition of radioligand binding, human melanocortin (MC4) (Human Melanocortin (MC4); [125I]-NDP-αMSH): − (“−” indicates less than 50% inhibition at 10 μM); A8: inhibition of radioligand binding, human neurokinin (NK1) (Human neurokinin (NK1); [125I]-Substance P): + (“+” indicates greater than 50% inhibition at 10 μM) |
| COC[C@H]1OC(OCc2ccc(Cl)cc2)[C@H](NC(=O)CNC(=N)N)[C@@H](OCc2ccc3ccccc3c2)[C@@H]1O (stereo partly drawn) [compound 31] | + (“+” indicates greater than 50% inhibition at 10 μM) | − (“−” indicates less than 50% inhibition at 10 μM) | − (“−” indicates less than 50% inhibition at 10 μM) | + (“+” indicates greater than 50% inhibition at 10 μM) | + (“+” indicates greater than 50% inhibition at 10 μM) | − (“−” indicates less than 50% inhibition at 10 μM) | − (“−” indicates less than 50% inhibition at 10 μM) | − (“−” indicates less than 50% inhibition at 10 μM) | − (“−” indicates less than 50% inhibition at 10 μM) | − (“−” indicates less than 50% inhibition at 10 μM) | − (“−” indicates less than 50% inhibition at 10 μM) |  |
| CO[C@H]1[C@H](O)[C@@H](COCc2ccc3ccccc3c2)OC(OCc2ccc3ccccc3c2)[C@@H]1NC(=O)CCCN (stereo partly drawn) [compound 72] | + (“+” indicates greater than 50% inhibition at 10 μM) | − (“−” indicates less than 50% inhibition at 10 μM) | − (“−” indicates less than 50% inhibition at 10 μM) | − (“−” indicates less than 50% inhibition at 10 μM) | − (“−” indicates less than 50% inhibition at 10 μM) | − (“−” indicates less than 50% inhibition at 10 μM) | − (“−” indicates less than 50% inhibition at 10 μM) | − (“−” indicates less than 50% inhibition at 10 μM) | − (“−” indicates less than 50% inhibition at 10 μM) | + (“+” indicates greater than 50% inhibition at 10 μM) | + (“+” indicates greater than 50% inhibition at 10 μM) |  |
| CO[C@H]1[C@H](O)[C@@H](COCc2ccc3ccccc3c2)OC(OCc2ccccc2)[C@@H]1NC(=O)CCNC(=N)N (stereo partly drawn) [compound 87] | − (“−” indicates less than 50% inhibition at 10 μM) | − (“−” indicates less than 50% inhibition at 10 μM) | − (“−” indicates less than 50% inhibition at 10 μM) | − (“−” indicates less than 50% inhibition at 10 μM) | − (“−” indicates less than 50% inhibition at 10 μM) | − (“−” indicates less than 50% inhibition at 10 μM) | − (“−” indicates less than 50% inhibition at 10 μM) | − (“−” indicates less than 50% inhibition at 10 μM) | − (“−” indicates less than 50% inhibition at 10 μM) | − (“−” indicates less than 50% inhibition at 10 μM) | + (“+” indicates greater than 50% inhibition at 10 μM) |  |
| COCC1OC(OCc2ccc3ccccc3c2)C(NC(=O)CCCNC(=N)N)C(OCc2ccc3ccccc3c2)C1O (stereo not drawn) [compound 250] |  |  |  |  |  |  |  |  |  |  |  | A5: inhibition of radioligand binding (Human melanocortin (MC5); [125I]-NDP-αMSH, FlashPlate): + (“+” indicates greater than 50% inhibition at 10 μM); A2: inhibition of radioligand binding (Human κ-Opioid (KOP); [3H]-Diprenorphine, filtration): − (“−” indicates less than 50% inhibition at 10 μM); A6: inhibition of radioligand binding ([1]; [125I]-S36057, FlashPlate): + (“+” indicates greater than 50% inhibition at 10 μM); A3: inhibition of radioligand binding (Human Melanocortin (MC3); [125I]-NDP-αMSH, FlashPlate): − (“−” indicates less than 50% inhibition at 10 μM); A7: inhibition of radioligand binding (Human μ-opioid (MOP); [3H]-Naloxone, FlashPlate): − (“−” indicates less than 50% inhibition at 10 μM); A11: inhibition of radioligand binding (Mouse urotensin (mUR2); [125I]-Urotensin II, FlashPlate): − (“−” indicates less than 50% inhibition at 10 μM); A9: inhibition of radioligand binding ([2]; [125I]-PYY, FlashPlate): − (“−” indicates less than 50% inhibition at 10 μM); A1: inhibition of radioligand binding (Human δ-opioid (DOP); [3H]-Bremazocine, FlashPlate): − (“−” indicates less than 50% inhibition at 10 μM); A10: inhibition of radioligand binding (Human opioid (ORL1); [125I]-Nociceptin, FlashPlate): + (“+” indicates greater than 50% inhibition at 10 μM); A4: inhibition of radioligand binding (Human Melanocortin (MC4); [125I]-NDP-αMSH, FlashPlate): + (“+” indicates greater than 50% inhibition at 10 μM); A8: inhibition of radioligand binding (Human neurokinin (NK1); [125I]-Substance P, filtration): + (“+” indicates greater than 50% inhibition at 10 μM) |

— patent US20080009418A1, “Selective Inhibitors” (Alchemia LTD., priority 2004, published 2008)
